Type in all cases: functional, organism-based
What all share (conditions): Human immunodeficiency virus 1, MT4

In assay [1] the test system is Human immunodeficiency virus 1. The experiment in a line: Inhibitory activity against LAI strain of HIV-I in MT-4 cell was determined.
In assay [2] the test system is Human immunodeficiency virus 1. The experiment in a line: Inhibitory activity against 181C strain of HIV-I in MT-4 cell was determined.
Assay [3] concerns Human immunodeficiency virus 1. Put plainly: Inhibitory activity against 103N strain of HIV-I in MT-4 cell was determined.
Assay [4] deals with Human immunodeficiency virus 1. Put plainly: Inhibitory activity against 188L strain of HIV-1 in MT-4 cell was determined.
For assay [5], the system named is Human immunodeficiency virus 1. Put plainly: Inhibitory activity against 100I strain of HIV-I in MT-4 cell was determined.

The structures appear in SMILES notation. Bounds are passed on as bounds.

For `COc1cccc(OC)c1Oc1nc(N)nc(Nc2ccc(C#N)cc2)n1`, the IC50 was 31 nM in assay [1], 1560 nM in assay [2] and 526 nM in assay [3].

With `Cc1cc(N)cc(C)c1Oc1nc(N)nc(Nc2ccc(C#N)cc2)n1`, the IC50 in assay [1] is 7830 nM; in assay [2], above 100000 nM; in assay [3], above 100000 nM.

On to `Cc1cc(Br)c(Oc2ncnc(Nc3ccc(C#N)cc3)n2)c(Br)c1`, for which the IC50 in assay [4] worked out at 398 nM; in assay [1], 1.3 nM; in assay [5], 16 nM; in assay [2], 40 nM; in assay [3], 6 nM.

With `CC(C)NC(=O)Nc1nc(Cc2c(Cl)cccc2Cl)nc(Nc2ccc(C#N)cc2)n1`, the IC50 stood at 379 nM in assay [1], 35100 nM in assay [5], 43800 nM in assay [2] and 7550 nM in assay [3].

Consider `Cc1cc(I)cc(C)c1Oc1nc(N)nc(Nc2ccc(C#N)cc2)n1`, for which the IC50 stood at 75 nM in assay [4]; 30 nM in assay [1]; 204 nM in assay [5]; 68 nM in assay [2]; 10 nM in assay [3].

`N#Cc1ccc(Nc2nc(Cc3c(Cl)cccc3Cl)nc(N3CCOCC3)n2)cc1` displayed an IC50 in assay [1] of 194 nM.

As to `N#Cc1ccc(Nc2nc(N)nc(Oc3c(Cl)cc(F)cc3Cl)n2)cc1`, the half-inhibitory concentration (IC50) came to 1020 nM in assay [4]; 7.3 nM in assay [1]; 706 nM in assay [5]; 259 nM in assay [2]; 65 nM in assay [3].

With `CN(C)CCNc1nc(Cc2c(Cl)cccc2Cl)nc(Nc2ccc(C#N)cc2)n1`, the IC50 stood at 297 nM in assay [4]; 5 nM in assay [1]; 1260 nM in assay [5]; 379 nM in assay [2]; 21 nM in assay [3].

Take `N#Cc1ccc(Nc2nc(N)nc(Cc3c(Cl)cccc3Cl)n2)cc1`: the IC50 is 316 nM in assay [4]; 6.3 nM in assay [1]; 398 nM in assay [5]; 200 nM in assay [2]; 40 nM in assay [3].

For the compound `N#Cc1ccc(Nc2nc(N)nc(Oc3c(F)cc(F)cc3F)n2)cc1`, the IC50 in assay [4] came out at 8950 nM; in assay [1], 51 nM; in assay [5] it was 216 nM; in assay [2], 3650 nM; in assay [3], 87 nM.

`C[S+]([O-])c1nc(Cc2c(Cl)cccc2Cl)nc(Nc2ccc(C#N)cc2)n1` (configuration not stated): the IC50 amounted to 1550 nM in assay [1], 68500 nM in assay [2] and 15500 nM in assay [3].

`CN(C)CCOc1nc(Cc2c(Cl)cccc2Cl)nc(Nc2ccc(C#N)cc2)n1`: the IC50 in assay [4] is 315 nM; in assay [1], 5.5 nM; in assay [5], 1080 nM; in assay [2] it was 1390 nM; in assay [3], 37 nM.

On to `N#Cc1ccc(Nc2nc(N)nc(Cc3ccccc3)n2)cc1`, for which the IC50 in assay [1] is 285 nM; in assay [5], 8070 nM; in assay [2], above 100000 nM; in assay [3] it was 8470 nM.

For the compound `CCOC(=O)Nc1nc(Cc2c(Cl)cccc2Cl)nc(Nc2ccc(C#N)cc2)n1`, the IC50 in assay [4] came to 1730 nM; in assay [1], 12 nM; in assay [5] it was 1640 nM; in assay [2], 1320 nM; in assay [3], 548 nM.

As for `CONc1nc(Cc2c(Cl)cccc2Cl)nc(Nc2ccc(C#N)cc2)n1`, the IC50 in assay [4] amounted to 804 nM; in assay [1], 6.2 nM; in assay [5] it was 1380 nM; in assay [2], 62.8 nM; in assay [3], 82 nM.

With `CN(C)c1nc(Cc2c(Cl)cccc2Cl)nc(Nc2ccc(C#N)cc2)n1`, the IC50 in assay [1] stood at 166 nM; in assay [5], 32200 nM; in assay [2], 13400 nM; in assay [3] it was 4690 nM.

Turning to `N#Cc1ccc(Nc2nc(N)nc(Oc3c(Cl)cc(Cl)cc3Cl)n2)cc1`, the IC50 in assay [4] came out at 502 nM; in assay [1], 2.4 nM; in assay [5], 87 nM; in assay [2] it was 62 nM; in assay [3], 12 nM.

On to `Cc1cc([N+](=O)[O-])cc(C)c1Oc1nc(N)nc(Nc2ccc(C#N)cc2)n1`, for which the IC50 in assay [4] worked out at 123 nM; in assay [1], 2 nM; in assay [5], 330 nM; in assay [2], 57 nM; in assay [3], 8 nM.

As to `N#Cc1ccc(Nc2nc(Cc3c(Cl)cccc3Cl)nc(NN)n2)cc1`, the IC50 in assay [4] is 7320 nM; in assay [1], 610 nM; in assay [5] it was 5830 nM; in assay [2], 5830 nM; in assay [3], 1740 nM.

Compound `CON(C)c1nc(Cc2c(Cl)cccc2Cl)nc(Nc2ccc(C#N)cc2)n1` showed an IC50 in assay [1] of 86 nM.

For the compound `CC(=O)Nc1nc(Cc2c(Cl)cccc2Cl)nc(Nc2ccc(C#N)cc2)n1`, the IC50 in assay [4] came out at 158 nM; in assay [1], 16 nM; in assay [5] it was 100000 nM; in assay [2], 100000 nM; in assay [3], 40 nM.

With `N#Cc1ccc(Nc2nc(S)nc(Cc3c(Cl)cccc3Cl)n2)cc1`, the IC50 in assay [1] was determined as 94 nM; in assay [2], 1610 nM; in assay [3], 723 nM.

`Cc1cc(C)cc(Cc2nc(N)nc(Nc3ccc(C#N)cc3)n2)c1`: the IC50 in assay [4] is above 100000 nM; in assay [1], 91 nM; in assay [5], 77900 nM; in assay [2], 6370 nM; in assay [3] it was 5080 nM.

In assay [1], `CCCNc1nc(Cc2c(Cl)cccc2Cl)nc(Nc2ccc(C#N)cc2)n1` came in with an IC50 of 849 nM. This counts as sub-micromolar.

As to `N#Cc1ccc(Nc2nc(N)nc(Oc3c(Cl)cccc3Cl)n2)cc1`, the IC50 in assay [4] came out at 4570 nM; in assay [1], 3.1 nM; in assay [5], 384 nM; in assay [2] it was 279 nM; in assay [3], 82 nM.

On to `CSc1nc(Cc2c(Cl)cccc2Cl)nc(Nc2ccc(C#N)cc2)n1`, for which the IC50 was found to be 18 nM in assay [1], 2350 nM in assay [2] and 336 nM in assay [3].

Regarding `N#Cc1ccc(Nc2nc(F)nc(Cc3c(Cl)cccc3Cl)n2)cc1`, the results for the IC50 in assay [1], in assay [2] and in assay [3] were 5260 nM, 100000 nM and 52600 nM, respectively.

In the case of `N#Cc1ccc(Nc2nc(Cc3c(Cl)cccc3Cl)nc(N=[N+]=[N-])n2)cc1`, the figures for the IC50 in assay [1], in assay [2] and in assay [3] were 14 nM, 1140 nM and 224 nM, respectively.

`COc1nc(Cc2c(Cl)cccc2Cl)nc(Nc2ccc(C#N)cc2)n1`: the half-inhibitory concentration (IC50) amounted to 1550 nM in assay [4]; 12 nM in assay [1]; 1150 nM in assay [5]; 1450 nM in assay [2]; 231 nM in assay [3].

Consider `N#Cc1ccc(Nc2nc(Cc3c(Cl)cccc3Cl)nc(NO)n2)cc1`, for which the IC50 in assay [4] was found to be 26 nM; in assay [1] it was 2.4 nM; in assay [5] it was 107 nM; in assay [2] it was 38 nM; in assay [3] it was 13 nM.

For `N#Cc1ccc(Nc2nc(N)nc(Cc3c(Cl)cc(Cl)cc3Cl)n2)cc1`, the IC50 in assay [4] turned out to be 161 nM; in assay [1], 1.4 nM; in assay [5], 221 nM; in assay [2], 6.2 nM; in assay [3] it was 16 nM.

For the compound `N#Cc1ccc(Nc2nc(N)nc(Cc3ccccc3Cl)n2)cc1`, the IC50 in assay [4] stood at 7370 nM; in assay [1], 130 nM; in assay [5], 2650 nM; in assay [2] it was 2570 nM; in assay [3], 400 nM.

For the compound `N#Cc1ccc(Nc2nc(Cl)nc(Cc3c(Cl)cccc3Cl)n2)cc1`, the IC50 in assay [1] was found to be 1080 nM; in assay [2] it was 10000 nM; in assay [3] it was 10000 nM.

In the case of `CNc1nc(Cc2c(Cl)cccc2Cl)nc(Nc2ccc(C#N)cc2)n1`, the IC50 in assay [4] is 1020 nM; in assay [1] it was 7 nM; in assay [5], 1160 nM; in assay [2], 440 nM; in assay [3] it was 137 nM.

Regarding `N#Cc1ccc(Nc2nc(N)nc(Cc3c(Cl)ccc(Cl)c3Cl)n2)cc1`, the IC50 was 265 nM in assay [4]; 3 nM in assay [1]; 416 nM in assay [5]; 286 nM in assay [2]; 63 nM in assay [3].

For the compound `N#Cc1ccc(Nc2nc(N)nc(Cc3ccc(Cl)cc3Cl)n2)cc1`, the IC50 in assay [4] came out at 2320 nM; in assay [1], 14 nM; in assay [5] it was 2100 nM; in assay [2], 791 nM; in assay [3] it was 274 nM.

In the case of `N#Cc1ccc(Nc2nc(N)nc(Oc3c(Br)cc(Br)cc3Br)n2)cc1`, the IC50 was 619 nM in assay [4]; 5.4 nM in assay [1]; 131 nM in assay [5]; 61 nM in assay [2]; 17 nM in assay [3].

For the compound `Cc1cc(Br)cc(Cl)c1Oc1nc(N)nc(Nc2ccc(C#N)cc2)n1`, the concentration for half-maximal inhibition (IC50) amounted to 103 nM in assay [4]; 2.1 nM in assay [1]; 59 nM in assay [5]; 35 nM in assay [2]; 6 nM in assay [3].

In the case of `CC(=N)Nc1nc(Cc2c(Cl)cccc2Cl)nc(Nc2ccc(C#N)cc2)n1`, the half-maximal inhibitory concentration (IC50) was determined as 358 nM in assay [4]; 2.7 nM in assay [1]; 611 nM in assay [5]; 210 nM in assay [2]; 40 nM in assay [3].

Take `CN(C)/C=N\c1nc(Cc2c(Cl)cccc2Cl)nc(Nc2ccc(C#N)cc2)n1`: the IC50 worked out at 251 nM in assay [4]; 2.5 nM in assay [1]; 631 nM in assay [5]; 316 nM in assay [2]; 16 nM in assay [3].

`Cc1cc(C)c(Sc2nc(N)nc(Nc3ccc(C#N)cc3)n2)c(C)c1`: the IC50 was 36 nM in assay [4]; 2.9 nM in assay [1]; 64 nM in assay [5]; 19 nM in assay [2]; 6 nM in assay [3].

For the compound `N#Cc1ccc(Nc2nc(O)nc(Cc3c(Cl)cccc3Cl)n2)cc1`, the IC50 was found to be 160 nM in assay [1], 2120 nM in assay [2] and 607 nM in assay [3].

As to `Cc1ccc(C)c(Cc2nc(N)nc(Nc3ccc(C#N)cc3)n2)c1`, the IC50 in assay [4] amounted to 1030 nM; in assay [1], 3.1 nM; in assay [5], 5860 nM; in assay [2] it was 1570 nM; in assay [3], 273 nM.

As to `Cc1cccc(C)c1Cc1nc(N)nc(Nc2ccc(C#N)cc2)n1`, the IC50 in assay [4] came out at 105 nM; in assay [1], 1.2 nM; in assay [5] it was 1460 nM; in assay [2], 225 nM; in assay [3], 42 nM.

(Values after ChEMBL document CHEMBL1133922, “Evolution of anti-HIV drug candidates. Part 2: Diaryltriazine (DATA) analogues” (Bioorg Med Chem Lett, 2001).)
